Measurements published in patent US20250179078A1, “INHIBITORS OF NLRP3” (PTC THERAPEUTICS, INC., priority 2022, published 2025).

Target: T1, NLRP3 (Homo sapiens, UniProt Q96P20)
T1 construct: host or cells: THP-1 cells differentiated with PMA
Experiment: IL-1β Secretion Assay (NLRP3-dependent IL1β secretion in THP1 cells)
Assay type: cell-based
Conditions: PMA-differentiated THP-1 cells; compounds incubated 20 h; 2.5 μM Nigericin 3 h; HTRF IL-1β readout; read-out: IC50 IL-1β Inhibition
Method in brief: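 IL-1β in conditioned media, measured by HTRF after 3 h 2.5 μM nigericin stimulation, gave % inhibition fitted logistically for IC50. Before that, PMA-differentiated (100 ng/mL, 24 h) THP-1 cells were preincubated 20 h with 7 compound concentrations (3-fold serial, DMSO 1:200).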

T1 sequence (Q96P20 whole entry): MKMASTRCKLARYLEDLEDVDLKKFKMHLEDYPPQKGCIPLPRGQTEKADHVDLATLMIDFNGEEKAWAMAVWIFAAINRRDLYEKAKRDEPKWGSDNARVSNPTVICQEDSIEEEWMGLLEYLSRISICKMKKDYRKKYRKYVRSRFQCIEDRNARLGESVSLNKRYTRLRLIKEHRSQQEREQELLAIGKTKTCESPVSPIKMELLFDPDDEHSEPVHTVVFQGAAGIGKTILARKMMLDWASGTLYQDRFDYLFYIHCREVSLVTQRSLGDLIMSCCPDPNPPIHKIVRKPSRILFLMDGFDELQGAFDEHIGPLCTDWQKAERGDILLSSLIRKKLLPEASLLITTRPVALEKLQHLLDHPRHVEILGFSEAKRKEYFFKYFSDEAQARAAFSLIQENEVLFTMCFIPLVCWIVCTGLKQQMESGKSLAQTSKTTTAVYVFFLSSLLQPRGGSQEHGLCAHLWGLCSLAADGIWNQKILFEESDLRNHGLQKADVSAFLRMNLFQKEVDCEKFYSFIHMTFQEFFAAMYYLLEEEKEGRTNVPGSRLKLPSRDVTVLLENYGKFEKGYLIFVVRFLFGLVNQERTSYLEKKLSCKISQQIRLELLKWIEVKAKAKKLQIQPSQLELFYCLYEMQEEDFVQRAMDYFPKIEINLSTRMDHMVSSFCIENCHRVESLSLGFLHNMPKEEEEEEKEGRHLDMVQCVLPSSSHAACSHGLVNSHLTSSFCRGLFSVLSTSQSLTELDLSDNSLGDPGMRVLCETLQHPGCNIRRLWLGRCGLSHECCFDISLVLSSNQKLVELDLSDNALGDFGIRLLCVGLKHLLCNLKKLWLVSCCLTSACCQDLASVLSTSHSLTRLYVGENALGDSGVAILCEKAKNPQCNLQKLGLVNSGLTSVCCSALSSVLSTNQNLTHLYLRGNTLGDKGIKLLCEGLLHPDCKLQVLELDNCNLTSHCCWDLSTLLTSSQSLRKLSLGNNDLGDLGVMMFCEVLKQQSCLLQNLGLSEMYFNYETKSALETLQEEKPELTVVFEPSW

Compound	IC50 [nM]
CN1CCCC(Nc2nnc(-c3ccc(C(F)(F)F)cc3CC(F)(F)F)c3cncn23)C1=O (stereo not shown) [Compound 329, 1-methyl-3-({1-[2-(2,2,2-trifluoroethyl)-4-(trifluoromethyl)phenyl]imidazo[1,5-d][1,2,4]triazin-4-yl}amino)piperidin-2-one]	1 to 10
COc1ccc(-c2nnc(NC3CCCN(C)C3=O)n3cncc23)c(CC(F)(F)F)c1 (stereo not shown) [Compound 330, 3-({1-[4-methoxy-2-(2,2,2-trifluoroethyl)phenyl]imidazo[1,5-d][1,2,4]triazin-4-yl}amino)-1-methylpiperidin-2-one]	10 to 100
O[C@@H]1COCC[C@H]1Nc1nnc(-c2ccc(OC(F)F)cc2OC(F)(F)F)c2cncn12 [Compound 331, (3S,4R)-4-({1-[4-(difluoromethoxy)-2-(trifluoromethoxy)phenyl]imidazo[1,5-d][1,2,4]triazin-4-yl}amino)oxan-3-ol]	10 to 100
Cc1ccc(-c2nnc(N[C@H]3C[C@@](C)(O)C3)n3cncc23)c(OC(F)(F)F)c1 [Compound 332, (1s,3s)-1-methyl-3-({1-[4-methyl-2-(trifluoromethoxy)phenyl]imidazo[1,5-d][1,2,4]triazin-4-yl}amino)cyclobutan-1-ol]	10 to 100
O=C1NCCC1Nc1nnc(-c2ccc(C(F)(F)F)cc2C2CC2)c2cncn12 (stereo not shown) [Compound 333, 3-({1-[2-cyclopropyl-4-(trifluoromethyl)phenyl]imidazo[1,5-d][1,2,4]triazin-4-yl}amino)pyrrolidin-2-one]	1 to 10
O[C@@H]1COCC[C@H]1Nc1nnc(-c2ccc(C(F)(F)F)cc2C2CC2)c2cncn12 [Compound 334, (3S,4R)-4-({1-[2-cyclopropyl-4-(trifluoromethyl)phenyl]imidazo[1,5-d][1,2,4]triazin-4-yl}amino)oxan-3-ol]	10 to 100
CC1(CO)CC(Nc2nnc(-c3ccc(C(F)(F)F)cc3OC(F)(F)F)c3cncn23)C1 (stereo not shown) [Compound 335, [1-methyl-3-({1-[2-(trifluoromethoxy)-4-(trifluoromethyl)phenyl]imidazo[1,5-d][1,2,4]triazin-4-yl}amino)cyclobutyl]methanol]	10 to 100
COc1ccc(-c2nnc(N[C@H]3C[C@](C)(CO)C3)n3cncc23)c(CC(F)(F)F)c1 [Compound 336, [(1r,3r)-3-({1-[4-methoxy-2-(2,2,2-trifluoroethyl)phenyl]imidazo[1,5-d][1,2,4]triazin-4-yl}amino)-1-methylcyclobutyl]methanol]	10 to 100
COc1ccc(-c2nnc(NC3CC(C)(CO)C3)n3cncc23)c(CC(F)(F)F)c1 (stereo not shown) [Compound 337, [3-({1-[4-methoxy-2-(2,2,2-trifluoroethyl)phenyl]imidazo[1,5-d][1,2,4]triazin-4-yl}amino)-1-methylcyclobutyl]methanol]	10 to 100
COc1ccc(-c2nnc(NC3CC(C(C)(C)O)C3)n3cncc23)c(OC(F)(F)F)c1 (stereo not shown) [Compound 338, 2-[3-({1-[4-methoxy-2-(trifluoromethoxy)phenyl]imidazo[1,5-d][1,2,4]triazin-4-yl}amino)cyclobutyl]propan-2-ol]	100 to 300
CC(C)(O)C1CC(Nc2nnc(-c3ccc(C(F)(F)F)cc3CC(F)(F)F)c3cncn23)C1 (stereo not shown) [Compound 339, 2-[3-({1-[2-(2,2,2-trifluoroethyl)-4-(trifluoromethyl)phenyl]imidazo[1,5-d][1,2,4]triazin-4-yl}amino)cyclobutyl]propan-2-ol]	10 to 100
C[C@]1(CO)C[C@@H](Nc2nnc(-c3ccc(C(F)(F)F)cc3OC(F)(F)F)c3cncn23)C1 [Compound 340, [(1s,3s)-1-methyl-3-({1-[2-(trifluoromethoxy)-4-(trifluoromethyl)phenyl]imidazo[1,5-d][1,2,4]triazin-4-yl}amino)cyclobutyl]methanol]	1 to 10
COc1ccc(-c2nnc(N[C@H]3C[C@@](C)(CO)C3)n3cncc23)c(CC(F)(F)F)c1 [Compound 341, [(1s,3s)-3-({1-[4-methoxy-2-(2,2,2-trifluoroethyl)phenyl]imidazo[1,5-d][1,2,4]triazin-4-yl}amino)-1-methylcyclobutyl]methanol]	10 to 100
COc1ccc(-c2nnc(N[C@H]3C[C@@](C)(CO)C3)n3cncc23)c(OC(F)(F)F)c1 [Compound 342, [(1s,3s)-3-({1-[4-methoxy-2-(trifluoromethoxy)phenyl]imidazo[1,5-d][1,2,4]triazin-4-yl}amino)-1-methylcyclobutyl]methanol]	10 to 100
C[C@]1(CO)C[C@@H](Nc2nnc(-c3ccc(C(F)(F)F)cc3CC(F)(F)F)c3cncn23)C1 [Compound 343, [(1s,3s)-1-methyl-3-({1-[2-(2,2,2-trifluoroethyl)-4-(trifluoromethyl)phenyl]imidazo[1,5-d][1,2,4]triazin-4-yl}amino)cyclobutyl]methanol]	< 1
Cc1ccc(-c2nnc(N[C@H]3C[C@@](C)(O)C3)n3cncc23)c(OC(F)F)c1 [Compound 344, (1s,3s)-3-({1-[2-(difluoromethoxy)-4-methylphenyl]imidazo[1,5-d][1,2,4]triazin-4-yl}amino)-1-methylcyclobutan-1-ol]	10 to 100

Compound	IC50 [nM]
C[C@]1(O)C[C@@H](Nc2nnc(-c3ccc(C4CC4)cc3OC(F)F)c3cncn23)C1 [Compound 345, (1s,3s)-3-({1-[4-cyclopropyl-2-(difluoromethoxy)phenyl]imidazo[1,5-d][1,2,4]triazin-4-yl}amino)-1-methylcyclobutan-1-ol]	1 to 10
C[C@]1(O)C[C@@H](Nc2nnc(-c3ccc(C4CC4)cc3OC(F)(F)F)c3cncn23)C1 [Compound 346, (1s,3s)-3-({1-[4-cyclopropyl-2-(trifluoromethoxy)phenyl]imidazo[1,5-d][1,2,4]triazin-4-yl}amino)-1-methylcyclobutan-1-ol]	1 to 10
Cc1ccc(-c2nnc(N[C@H]3C[C@@H](CO)C3)n3cncc23)c(OC(F)(F)F)c1 [Compound 347, [(1s,3s)-3-({1-[4-methyl-2-(trifluoromethoxy)phenyl]imidazo[1,5-d][1,2,4]triazin-4-yl}amino)cyclobutyl]methanol]	10 to 100
C[C@]1(O)C[C@@H](Nc2nnc(-c3ccc(C4CC4)cc3CC(F)(F)F)c3cncn23)C1 [Compound 348, (1s,3s)-3-({1-[4-cyclopropyl-2-(2,2,2-trifluoroethyl)phenyl]imidazo[1,5-d][1,2,4]triazin-4-yl}amino)-1-methylcyclobutan-1-ol]	< 1
OC[C@H]1C[C@@H](Nc2nnc(-c3ccc(C4CC4)cc3CC(F)(F)F)c3cncn23)C1 [Compound 349, [(1s,3s)-3-({1-[4-cyclopropyl-2-(2,2,2-trifluoroethyl)phenyl]imidazo[1,5-d][1,2,4]triazin-4-yl}amino)cyclobutyl]methanol]	1 to 10
O=C1NCCC1Nc1nnc(-c2ccc(C3CC3)cc2CC(F)(F)F)c2cncn12 (stereo not shown) [Compound 350, 3-({1-[4-cyclopropyl-2-(2,2,2-trifluoroethyl)phenyl]imidazo[1,5-d][1,2,4]triazin-4-yl}amino)pyrrolidin-2-one]	1 to 10
O[C@@H]1COCC[C@H]1Nc1nnc(-c2ccc(C3CC3)cc2CC(F)(F)F)c2cncn12 [Compound 351, (3S,4R)-4-({1-[4-cyclopropyl-2-(2,2,2-trifluoroethyl)phenyl]imidazo[1,5-d][1,2,4]triazin-4-yl}amino)oxan-3-ol]	1 to 10
CN1CCC[C@@H](Nc2nnc(-c3ccc(C4CC4)cc3CC(F)(F)F)c3cncn23)C1 [Compound 352, 1-[4-cyclopropyl-2-(2,2,2-trifluoroethyl)phenyl]-N-[(3R)-1-methylpiperidin-3-yl]imidazo[1,5-d][1,2,4]triazin-4-amine]	1 to 10
O[C@H]1CCC[C@@H](Nc2nnc(-c3ccc(C4CC4)cc3CC(F)(F)F)c3cncn23)C1 [Compound 353, (1S,3R)-3-({1-[4-cyclopropyl-2-(2,2,2-trifluoroethyl)phenyl]imidazo[1,5-d][1,2,4]triazin-4-yl}amino)cyclohexan-1-ol]	1 to 10
CC(Nc1nnc(-c2ccc(C3CC3)cc2CC(F)(F)F)c2cncn12)c1cccc(O)c1 (stereo not shown) [Compound 354, 3-[1-({1-[4-cyclopropyl-2-(2,2,2-trifluoroethyl)phenyl]imidazo[1,5-d][1,2,4]triazin-4-yl}amino)ethyl]phenol]	1 to 10
Cc1ccc(-c2nnc(N[C@@H]3CCCN(CCO)C3)n3cncc23)c(OC(F)(F)F)c1 [Compound 355, 2-[(3R)-3-({1-[4-methyl-2-(trifluoromethoxy)phenyl]imidazo[1,5-d][1,2,4]triazin-4-yl}amino)piperidin-1-yl]ethan-1-ol]	10 to 100
CCN1C[C@H](F)C[C@@H](Nc2nnc(-c3ccc(C(F)(F)F)cc3OC(F)F)c3cc(C)nn23)C1 [Compound 356, 4-[2-(difluoromethoxy)-4-(trifluoromethyl)phenyl]-N-[(3R,5R)-1-ethyl-5-fluoropiperidin-3-yl]-2-methylpyrazolo[1,5-d][1,2,4]triazin-7-amine]	< 1
CCN1CCC[C@@H](Nc2nnc(-c3ccc(Br)cc3OC(F)(F)F)c3cc(C)nn23)C1 [Compound 357, 4-[4-bromo-2-(trifluoromethoxy)phenyl]-N-[(3R)-1-ethylpiperidin-3-yl]-2-methylpyrazolo[1,5-d][1,2,4]triazin-7-amine]	< 1
Cc1cc2c(-c3ccc(Cl)cc3OC(F)F)nnc(N[C@@H]3CCCN(C)C3)n2n1 [Compound 358, 4-[4-chloro-2-(difluoromethoxy)phenyl]-2-methyl-N-[(3R)-1-methylpiperidin-3-yl]pyrazolo[1,5-d][1,2,4]triazin-7-amine]	< 1
Cc1cc2c(-c3ccc(C(F)(F)F)cc3C(F)F)nnc(N[C@@H]3CCCN(C)C3)n2n1 [Compound 359, 4-[2-(difluoromethyl)-4-(trifluoromethyl)phenyl]-2-methyl-N-[(3R)-1-methylpiperidin-3-yl]pyrazolo[1,5-d][1,2,4]triazin-7-amine]	1 to 10
